According to US9963448B2, “Bicyclic inhibitors of PAD4” (Padlock Therapeutics, Inc., priority 2015, dated 2018):
Where two headings read alike, the source gives them in different places.

Tests used:
hPAD4 = hPAD4 (Homo sapiens, UniProt Q9UM07); test: hPAD4 RFMS (RapidFire mass spectrometry) PAD4 inhibition assay; type: biochemical; settings: hPAD4 enzyme, RFMS readout;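 on hPAD4 RFMS pIC50: grade E means pIC50 at most 4 and F means pIC50 4.0 to 5.0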
Description: (§1) Compounds of the present invention were assayed as inhibitors of PAD4 using the assay protocol described below.
(§2) Compound stock solutions were stored at RT. […] Final assay conditions were as follows:
(§3) Total incubation time: 65 mins at 37° C.
(§4) Stop solution: 40 μl 5% TCA in ACN
(§5) The compound numbers correspond to the compound numbers in Table 1. […] The term pIC50=−log(IC50). […] “NA” stands for “not assayed.”

mPAD4 = mPAD4 (Mus musculus, UniProt Q9Z183); test: mPAD4 RFMS PAD4 inhibition assay; type: biochemical; settings: mPAD4, RFMS readout;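 on mPAD4 RFMS pIC50: grade E means pIC50 at most 4 and F means pIC50 4.0 to 5.0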
Chain of mPAD4 (Q9Z183 whole entry): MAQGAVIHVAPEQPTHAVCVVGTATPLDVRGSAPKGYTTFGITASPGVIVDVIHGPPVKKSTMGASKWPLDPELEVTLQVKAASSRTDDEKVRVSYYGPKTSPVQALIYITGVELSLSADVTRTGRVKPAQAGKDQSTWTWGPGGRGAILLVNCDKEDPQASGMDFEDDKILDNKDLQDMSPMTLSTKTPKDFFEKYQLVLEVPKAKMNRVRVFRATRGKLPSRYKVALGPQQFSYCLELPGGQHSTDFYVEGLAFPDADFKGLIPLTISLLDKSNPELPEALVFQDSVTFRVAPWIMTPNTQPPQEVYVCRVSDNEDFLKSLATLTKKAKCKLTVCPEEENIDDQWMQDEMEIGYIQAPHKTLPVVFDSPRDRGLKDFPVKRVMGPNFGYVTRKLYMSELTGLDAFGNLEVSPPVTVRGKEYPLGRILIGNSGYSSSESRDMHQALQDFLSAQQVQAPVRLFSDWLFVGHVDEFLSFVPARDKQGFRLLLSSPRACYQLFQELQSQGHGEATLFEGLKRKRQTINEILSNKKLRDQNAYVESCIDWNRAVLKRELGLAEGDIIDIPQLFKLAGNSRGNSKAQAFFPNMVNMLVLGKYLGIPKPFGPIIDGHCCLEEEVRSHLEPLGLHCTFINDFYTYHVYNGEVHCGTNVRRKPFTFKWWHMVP
Description: as §1, §2, §3, §4, §5

[1] = pIC50=−log(IC50), read-out: hPAD4 RFMS pIC50 (converted)
[2] = pIC50=−log(IC50), read-out: mPAD4 RFMS pIC50 (converted)

Chain of hPAD4 (Q9UM07 whole entry): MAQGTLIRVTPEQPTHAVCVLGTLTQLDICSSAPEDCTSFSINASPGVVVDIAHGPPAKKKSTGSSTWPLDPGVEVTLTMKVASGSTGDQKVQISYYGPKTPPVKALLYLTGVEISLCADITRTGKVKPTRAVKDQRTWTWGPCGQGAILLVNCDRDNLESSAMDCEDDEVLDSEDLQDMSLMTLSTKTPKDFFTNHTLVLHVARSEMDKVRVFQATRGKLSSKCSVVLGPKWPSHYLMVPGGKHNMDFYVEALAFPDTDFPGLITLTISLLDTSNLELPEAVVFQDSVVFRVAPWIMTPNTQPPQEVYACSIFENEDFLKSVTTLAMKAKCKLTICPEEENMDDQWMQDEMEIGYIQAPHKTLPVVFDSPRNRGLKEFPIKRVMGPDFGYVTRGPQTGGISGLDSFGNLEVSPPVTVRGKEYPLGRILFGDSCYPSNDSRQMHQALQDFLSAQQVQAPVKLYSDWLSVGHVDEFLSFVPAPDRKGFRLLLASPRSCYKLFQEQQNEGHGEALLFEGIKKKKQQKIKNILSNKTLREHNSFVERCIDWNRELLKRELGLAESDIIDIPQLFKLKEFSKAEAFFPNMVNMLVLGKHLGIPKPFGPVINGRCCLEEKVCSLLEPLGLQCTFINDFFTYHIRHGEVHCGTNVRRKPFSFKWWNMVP

Row | SMILES | IC50 (hPAD4; [1]) [µM] | IC50 (hPAD4; read-out: hPAD4 RFMS IC50) [µM] | IC50 (mPAD4; [2]) [µM] | IC50 (mPAD4; read-out: mPAD4 RFMS IC50) [µM] | hPAD4 RFMS pIC50 (hPAD4; pIC50=−log(IC50))
1 | COc1cc(C(=O)N2C[C@H]3CC[C@@H]2[C@@H]3N)cc2nc(-c3cc4cccnc4n3CC3CC3)n(CC(F)F)c12 [Compound I-233] | < 1 | < 1 | < 1 | < 1 | 
2 | COc1cc(C(=O)N2C[C@H]3CC[C@@H]2[C@@H]3N)cc2nc(-c3cc4cccnc4n3CC3CC3)n(CC(F)F)c12 [Compound I-234] |  | < 1 | 1 to 10 | 1 to 5 | H (pIC50 of ≥6)
3 | COc1cc(C(=O)N2C[C@H]3CC[C@@H]2[C@@H]3N)cc2nc(-c3cc4cccnc4n3CC3CC3)n(CCSC)c12 [Compound I-235] | < 1 | < 1 | < 1 | < 1 | 
4 | CN[C@@H]1[C@@H]2CC[C@H]1N(C(=O)c1cc(OC)c3c(c1)nc(-c1cc4cccnc4n1CC1CC1)n3C)C2 [Compound I-237, (1R,4R,7R)-2-{2-[1-(Cyclopropylmethyl)-1H-pyrrolo[2,3-b]pyridin-2-yl]-7-methoxy-1-methyl-1H-1,3-benzodiazole-5-carbonyl}-N-methyl-2-azabicyclo[2.2.1]heptan-7-amine] | 10 to 100 | > 10 | 10 to 100 | > 10 | 

Second part, the compound after the results:

Row | IC50 (hPAD4; [1]) [µM] | IC50 (hPAD4; read-out: hPAD4 RFMS IC50) [µM] | IC50 (mPAD4; [2]) [µM] | IC50 (mPAD4; read-out: mPAD4 RFMS IC50) [µM] | hPAD4 RFMS pIC50 (hPAD4; pIC50=−log(IC50)) | SMILES
5 | < 1 | < 1 | < 1 | < 1 |  | COc1cc(C(=O)N2C[C@H]3CC[C@@H]2[C@@H]3N)cc2nc(-c3cc4cccnc4n3CC3CC3)n(C[C@H]3CCOC3)c12 [Compound I-231]
6 | < 1 | < 1 | < 1 | < 1 |  | COc1cc(C(=O)N2C[C@H]3CC[C@@H]2[C@@H]3N)cc2nc(-c3cc4cccnc4n3CC3CC3)n(C[C@@H]3CCOC3)c12 [Compound I-232]
7 | < 1 | < 1 | < 1 | < 1 |  | COc1cc(C(=O)N2C[C@H]3CC[C@@H]2[C@@H]3N)cc2nc(-c3cc4cccnc4n3CC3CC3)n(C[C@H]3C[C@@H](OC)C3)c12 [Compound I-236]
8 | < 1 | < 1 | < 1 | < 1 |  | [2H]C([2H])([2H])OC1(C)CC(Cn2c(-c3cc4cccnc4n3CC3CC3)nc3cc(C(=O)N4C[C@H]5CC[C@@H]4[C@@H]5N)cc(OC)c32)C1 (stereo partly drawn) [Compound I-238, (1R,4R,7R)-2-{2-[1-(cyclopropylmethyl)-1H-pyrrolo[2,3-b]pyridin-2-yl]-7-methoxy-1-{[3-(^2H3)methoxy-3-methylcyclobutyl]methyl}-1H-1,3-benzodiazole-5-carbonyl}-2-azabicyclo[2.2.1]heptan-7-amine]
